Columns and labels:
Escherichia coli = assay: hand disinfection test, transient bacteria on hands of subjects (Handrub procedure PN-EN 1500:2013-07); assay type: in vivo; settings: 18 subjects, E. coli on hands, hand rub
Protocol: Tests were performed on the hands of healthy subjects to determine the transient bacteria killing effect of the disclosed compositions. The subjects washed their hands, and dipped their fingertips into Escherichia coli. The disclosed compositions were applied to the subjects' hands by rubbing the disclosed compositions into the skin to stimulate the removal of the transient bacteria on the skin. The same test was performed using prior art alcohol compositions.
Tests were performed on the hands of healthy subjects to determine the transient bacteria killing effect of the disclosed compositions.
In this experiment, 18 subjects washed their hands, and dipped their fingertips into a solution of Escherichia coli. Once the subjects' hands were dry, aliquots of the disclosed composition (5 mL of 160 ppm HOCl, 0.13% Hac) were applied to the subjects' dry hands and rubbed into the skin for 30 to stimulate the removal of the transient bacteria on the skin, according to Handrub procedure PN-EN 1500:2013-07.

natural bacteria = assay: hand and forearm rub test, effect on natural bacteria of the skin (Handrub procedure PN-EN 12791:2005); assay type: in vivo; settings: hands of 20 subjects
Protocol: In another experiment aliquots of the disclosed composition (3 mL of 0.03% HOCl, 0.13% Hac) were applied to each of the hands of 20 subjects. […] The composition was rubbed into the hands and forearms for 5 minutes to maintain exposure to the compositions according to Handrub procedure PN-EN 12791:2005.
Bacteria kills of Escherichia coli, Pseudomonas aeruginosa, Staphylococcus areus, and Enterococcus hirae were measured immediately after the application and again 3 hours after application.

SMILES	reduction of the presence of the transient bacteria (Escherichia coli) [log]	reduction of the natural bacteria (natural bacteria; 3 hours after application) [log]	reduction of the natural bacteria (natural bacteria; immediately after application) [log]
CC(C)O [2-propanol 60% v/v, 2-propanol]	4	–	–
CCCO [propan-1-ol, 60% v/v, propan-1-ol]	–	2.16	2.48
